The test system of the experiment is P388 leukemia ip, CD2F1 mice, survival T/C. Put plainly: NCI In Vivo Anticancer Drug Screen. Data for tumor model P388 Leukemia (intraperitoneal) in CD2F1 (CDF1) mice. The note with it: endpoint: median survival time, higher = longer survival. The method, boiled down: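 Mice carrying the transplanted tumor received test compound or vehicle. Survival was recorded in each group, and the value is the treated-group measurement divided by that of the vehicle-treated control group.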

The mark [1] stands for this setting: dose: 60.0 mg/kg/injection, schedule: Q01DX005 (ip), vehicle: saline with Tween-80.
Where [2] appears, read: dose: 120.0 mg/kg/injection, schedule: Q01DX005 (ip), vehicle: saline with Tween-80.
Where [3] appears, read: dose: 50.0 mg/kg/injection, schedule: Q01DX009 (ip), vehicle: saline with Tween-80.
[4] abbreviates: dose: 100.0 mg/kg/injection, schedule: Q01DX009 (ip), vehicle: saline with Tween-80.
[5] abbreviates: dose: 100.0 mg/kg/injection, schedule: Q04DX003 (ip), vehicle: saline with Tween-80.
Where [6] appears, read: dose: 200.0 mg/kg/injection, schedule: Q01DX009 (ip), vehicle: saline with Tween-80.
The mark [7] stands for this setting: dose: 240.0 mg/kg/injection, schedule: Q01DX005 (ip), vehicle: saline with Tween-80.
Where [8] appears, read: dose: 400.0 mg/kg/injection, schedule: Q01DX009 (ip), vehicle: saline with Tween-80.
The mark [9] stands for this setting: dose: 12.5 mg/kg/injection, schedule: Q01DX005 (ip), vehicle: Klucel (hydroxypropylcellulose) (HPC).
The mark [10] stands for this setting: dose: 25.0 mg/kg/injection, schedule: Q01DX005 (ip), vehicle: Klucel (hydroxypropylcellulose) (HPC).
Setting [11] is: dose: 12.5 mg/kg/injection, schedule: Q01DX009 (ip), vehicle: saline.
Where [12] appears, read: dose: 50.0 mg/kg/injection, schedule: Q01DX009 (ip), vehicle: saline.
Setting [13] is: dose: 100.0 mg/kg/injection, schedule: Q01DX009 (ip), vehicle: saline.
Where [14] appears, read: dose: 50.0 mg/kg/injection, schedule: Q01DX005 (ip), vehicle: Klucel (hydroxypropylcellulose) (HPC).
[15] abbreviates: dose: 100.0 mg/kg/injection, schedule: Q01DX005 (ip), vehicle: Klucel (hydroxypropylcellulose) (HPC).
Where [16] appears, read: dose: 25.0 mg/kg/injection, schedule: Q01DX009 (ip), vehicle: saline with Tween-80.

Molecules are shown by their SMILES. Where “and” joins values, the source holds several entries; their conditions need not be identical. Identical values can stand only once. Inconclusive results and toxic doses are left out.

Regarding `C[N+](C)(C)CCC[n+]1ccc(CCn2ccc3ccccc32)cc1`, the T/C runs as follows: (dose: 25.0 mg/kg/injection, schedule: Q01DX001 (ip), vehicle: saline) 93 % of control; (dose: 50.0 mg/kg/injection, schedule: Q01DX001 (ip), vehicle: saline) 92 % of control; (dose: 100.0 mg/kg/injection, schedule: Q01DX001 (ip), vehicle: saline) 102 % of control.

For `CC1C=CC(c2ccccc2)C2C(=O)OC(=O)C12` (stereo not given), the T/C was 116 % of control under setting [1] and 114 % of control under setting [2].

For the compound `NC(C(=O)O)C(CC(=O)O)c1ccccc1` (stereo not given), the T/C under setting [3] is 88 % of control; the T/C (dose: 50.0 mg/kg/injection, schedule: Q01DX009 (ip), vehicle: suspension in saline) was 96 % of control; the T/C under setting [4] is 94 % of control; the T/C (dose: 100.0 mg/kg/injection, schedule: Q01DX009 (ip), vehicle: suspension in saline) was 89 % of control; the T/C under setting [5] is 100 % of control; the T/C under setting [6] was 95 % of control. The T/C was 88 % of control (dose: 200.0 mg/kg/injection, schedule: Q01DX009 (ip), vehicle: suspension in saline); 108 % of control (dose: 200.0 mg/kg/injection, schedule: Q04DX003 (ip), vehicle: saline with Tween-80); 97 % of control (dose: 400.0 mg/kg/injection, schedule: Q04DX003 (ip), vehicle: saline with Tween-80).

With `O=C(Oc1cccc2cccnc12)c1ccc2ccccc2n1`, the T/C reads like this: (dose: 100.0 mg/kg/injection, schedule: Q04DX002 (ip), vehicle: saline with Tween-80) 100 % of control; (dose: 200.0 mg/kg/injection, schedule: Q04DX002 (ip), vehicle: saline with Tween-80) 96 % of control.

Turning to `CCN(CCOC(=O)Nc1ccc(F)cc1)c1ccccc1`, the T/C reads like this: under setting [1], 111 % of control; under setting [2], 96 % of control; under setting [7], 94 % of control.

Take `CN(C)c1ccc([N+]([O-])=NC#N)cc1`: the T/C is 93 % of control (dose: 25.0 mg/kg/injection, schedule: Q04DX003 (ip), vehicle: saline with Tween-80); 95 % of control (dose: 50.0 mg/kg/injection, schedule: Q04DX003 (ip), vehicle: saline with Tween-80); 92 % of control under setting [5].

`Oc1c(Br)cc(Br)c2ccccc12`: the T/C was 105 % of control under setting [4], 114 % of control under setting [6] and 111 % of control under setting [8].

On to `CC(/C=C/c1ccccc1)=N\NC(=S)Nc1ccc(Br)cc1`, for which the T/C (dose: 100.0 mg/kg/injection, schedule: Q04DX002 (ip), vehicle: Klucel (hydroxypropylcellulose) (HPC)) was 97 % of control.

On to `COc1cc(/C=C/[N+](=O)[O-])cc(Br)c1O`, for which the T/C is, setting by setting: (dose: 30.0 mg/kg/injection, schedule: Q01DX005 (ip), vehicle: saline with Tween-80) 119 % of control; under setting [1], 110 % of control and 113 % of control; under setting [2], 102 % of control and 122 % of control.

For the compound `Cc1[nH]nc2c(NC[c-]3[c-][c-][c-][c-]3)ncnc12.[Fe].[c-]1[c-][c-][cH-][c-]1`, the T/C runs as follows: (dose: 6.25 mg/kg/injection, schedule: Q01DX005 (ip), vehicle: Klucel (hydroxypropylcellulose) (HPC)) 101 % of control; under setting [9], 100 % of control; under setting [10], 115 % of control and 86 % of control.

For the compound `CC(=O)O/N=C/c1ccccn1`, the T/C is 94 % of control (dose: 25.0 mg/kg/injection, schedule: Q04DX003 (ip), vehicle: saline); 89 % of control and 94 % of control (dose: 50.0 mg/kg/injection, schedule: Q04DX003 (ip), vehicle: saline); 100 % of control (dose: 100.0 mg/kg/injection, schedule: Q04DX003 (ip), vehicle: saline); 98 % of control and 100 % of control (dose: 200.0 mg/kg/injection, schedule: Q04DX003 (ip), vehicle: saline).

As to `Cn1cnccc1=O`, the T/C is 102 % of control (dose: 6.25 mg/kg/injection, schedule: Q01DX009 (ip), vehicle: saline); 103 % of control under setting [11]; 106 % of control (dose: 25.0 mg/kg/injection, schedule: Q01DX009 (ip), vehicle: saline); 106 % of control under setting [12]; 103 % of control under setting [13].

As to `OCCNc1ncnc2cc(Cl)ccc12`, the T/C is 98 % of control under setting [10]; 95 % of control under setting [14]; 105 % of control under setting [15]; 98 % of control (dose: 200.0 mg/kg/injection, schedule: Q01DX005 (ip), vehicle: Klucel (hydroxypropylcellulose) (HPC)).

On to `CN(CO)c1nc(N(C)CO)nc(N(C)CO)n1`, for which the T/C (dose: 12.5 mg/kg/injection, schedule: Q01DX009 (ip), vehicle: saline with Tween-80) was 110 % of control; the T/C under setting [11] was 103 % of control; the T/C under setting [16] is 119 % of control; the T/C under setting [12] was 160 % of control; the T/C under setting [4] was 151 % of control; the T/C under setting [13] was 203 % of control.

Regarding `N#CC1=C(Nc2ccccc2)CCC1`, the T/C under setting [9] is 95 % of control; the T/C under setting [10] is 101 % of control; the T/C under setting [14] was 99 % of control and 101 % of control; the T/C under setting [15] is 110 % of control.

Consider `COc1cccc(OC)c1N(CCO)CCO`, for which the T/C was 101 % of control under setting [3], 95 % of control under setting [4] and 106 % of control under setting [6].

Consider `O=C1CCC(NC(=O)c2ccccc2)C(=O)N1` (stereo not given), for which the T/C (dose: 31.25 mg/kg/injection, schedule: Q01DX005 (ip), vehicle: Klucel (hydroxypropylcellulose) (HPC)) is 102 % of control; the T/C under setting [1] is 98 % of control; the T/C (dose: 62.5 mg/kg/injection, schedule: Q01DX005 (ip), vehicle: Klucel (hydroxypropylcellulose) (HPC)) was 98 % of control; the T/C under setting [2] was 107 % of control; the T/C (dose: 125.0 mg/kg/injection, schedule: Q01DX005 (ip), vehicle: Klucel (hydroxypropylcellulose) (HPC)) was 102 % of control; the T/C under setting [7] is 100 % of control. In addition, the T/C is 100 % of control (dose: 250.0 mg/kg/injection, schedule: Q01DX005 (ip), vehicle: Klucel (hydroxypropylcellulose) (HPC)) and 92 % of control (dose: 500.0 mg/kg/injection, schedule: Q01DX005 (ip), vehicle: Klucel (hydroxypropylcellulose) (HPC)).

`CC[As](CC)SC1OC(COC(C)=O)C(OC(C)=O)C(OC(C)=O)C1OC(C)=O` (stereo not given): the T/C is 116 % of control (dose: 50.0 mg/kg/injection, schedule: Q01DX009 (ip), vehicle: saline + alcohol); 108 % of control under setting [3]; 180 % of control (dose: 100.0 mg/kg/injection, schedule: Q01DX009 (ip), vehicle: saline + alcohol); 115 % of control under setting [4]; 181 % of control (dose: 200.0 mg/kg/injection, schedule: Q01DX009 (ip), vehicle: saline + alcohol); 96 % of control under setting [6]. Further, under setting [8], the T/C is 102 % of control.

Regarding `c1ccc(CN2COC3CCCCCCC32)cc1` (stereo not given), the T/C runs as follows: (dose: 50.0 mg/kg/injection, schedule: Q01DX005 (ip), vehicle: saline) 104 % of control; (dose: 100.0 mg/kg/injection, schedule: Q01DX005 (ip), vehicle: saline) 112 % of control; (dose: 200.0 mg/kg/injection, schedule: Q01DX005 (ip), vehicle: saline) 114 % of control.

Take `CCCCC(CC)COCCCNCC(=O)O` (stereo not given): the T/C runs as follows: (dose: 60.0 mg/kg/injection, schedule: Q01DX005 (ip), vehicle: saline) 102 % of control; (dose: 120.0 mg/kg/injection, schedule: Q01DX005 (ip), vehicle: saline) 107 % of control.

For `COc1cc(C)ccc1C1OC(=O)c2c1ccc(OC)c2OC` (stereo not given), the T/C was 106 % of control under setting [16], 101 % of control under setting [3], 97 % of control under setting [4] and 108 % of control under setting [6].

Consider `O=C(Nc1cccc(Cl)c1Cl)SCCSC(=O)Nc1cccc(Cl)c1Cl`, for which the T/C reads like this: (dose: 50.0 mg/kg/injection, schedule: Q01DX009 (ip), vehicle: gum acacia) 92 % of control; (dose: 100.0 mg/kg/injection, schedule: Q01DX009 (ip), vehicle: gum acacia) 100 % of control; (dose: 200.0 mg/kg/injection, schedule: Q01DX009 (ip), vehicle: gum acacia) 96 % of control.

Values taken from PubChem BioAssay AID330 (DTP/NCI, 2004).
